Measurements reported in patent publication US4276375A, “Determination of serine proteases” (AB Kabi, priority 1976, dated 1981).
Structures can show the parent of a compound that is named as a salt. Residues, ends and D or L forms follow the SMILES beside them. *: point of attachment. pNA = O=[N+]([O-])c1ccc(N*)cc1; Piperidide = C1CCN(*)CC1; Bz = O=C(c1ccccc1)*; NHiPr = CC(C)N*; OiPr = CC(C)O*

Experiments:
Assay type in all cases: biochemical
[1] = molecular target: T1, factor Xa (Bos taurus, UniProt P00743); test: Determination of Km and Vmax (Lineweaver-Burk, hydrolysis of chromogenic substrate read at 405 nm); settings: value is Vmax multiplied by 10^8; Tris buffer pH 8.3, I 0.25, 37° C., enzyme Diagen
T1 construct: purchased Diagnostic Reagents (product 'Diagen', 6.4 Denson U)
Procedure: (§1) Km and Vmax are obtained by means of the Lineweaver-Burk equation: [formula] Enzyme and substrate are mixed in a buffer solution and the rate of hydrolysis is measured spectrophotometrically. The substrate concentration (So) is varied while the enyzme concentration is kept constant. The reciprocal velocity l/vo is then plotted against the reciprocal substrate concentration l/So, and Km and Vmax are estimated (Table 1) from the obtained Lineweaver-Burk diagram.
(§2) Buffer Tris (tris(hydroxymethyl)aminomethane)
(§3) 0.05 mole/l, pH = 8.3, I = 0.25 (NaCl)
(§4) Enzyme Diagen (6.4 Denson U) (Diagnostic Reagents)
(§5) . 1 ampule is dissolved in 2 ml of water.
(§6) The substrate is dissolved in water to 2 mmole/l.
(§7) Mix and read change of absorbance (Δ OD/min) at […]

[2] = molecular target: T1, factor Xa; test: Relative activity (rate of substrate hydrolysis, Δ OD/min at 405 nm); settings: S-2222 = 100, 250 μl of 2 mmole/l substrate in 2500 μl, Tris buffer pH 8.3, 37° C.
Procedure: as §2, §3, §4, §5, §6
Substrate, +37° C.250 μl
as §7

[3] = substrate: CC[C@H](C)[C@H](NC(=O)c1ccccc1)C(=O)N[C@@H](CCC(=O)NC(C)C)C(=O)NCC(=O)N[C@@H](CCCNC(=N)N)C(=O)Nc1ccc([N+](=O)[O-])cc1; test: Determination of Km and Vmax (Lineweaver-Burk, hydrolysis of chromogenic substrate read at 405 nm); settings: other: value is Km multiplied by 10^4, Tris buffer 0.05 mole/l, pH 8.3, I 0.25 (NaCl), 37° C., enzyme Diagen, 37.0 °C
Procedure: as §1, §2, §3, §4, §5, §6, §7

[4] = substrate: CC[C@H](C)[C@H](NC(=O)c1ccccc1)C(=O)N[C@@H](CCC(=O)N1CCCCC1)C(=O)NCC(=O)N[C@@H](CCCNC(=N)N)C(=O)Nc1ccc([N+](=O)[O-])cc1; test: as above; settings: other: value is Km multiplied by 10^4, Tris buffer 0.05 mole/l, pH 8.3, I 0.25 (NaCl), 37° C., enzyme Diagen, 37.0 °C
Procedure: as §1, §2, §3, §4, §5, §6, §7

[5] = substrate: CC[C@H](C)[C@H](NC(=O)c1ccccc1)C(=O)N[C@@H](CCC(=O)O)C(=O)NCC(=O)N[C@@H](CCCN=C(N)N)C(=O)Nc1ccc([N+](=O)[O-])cc1; test: as above; settings: other: stated in the text; pH 8.3
Procedure: as §1, §2, §3, §4, §5, §6, §7

[6] = substrate: CCOC(=O)CC[C@H](NC(=O)[C@@H](NC(=O)c1ccccc1)[C@@H](C)CC)C(=O)NCC(=O)N[C@@H](CCCNC(=N)N)C(=O)Nc1ccc([N+](=O)[O-])cc1; test: as above; settings: other: value is Km multiplied by 10^4, Tris buffer 0.05 mole/l, pH 8.3, I 0.25 (NaCl), 37° C., enzyme Diagen, 37.0 °C
Procedure: as §1, §2, §3, §4, §5, §6, §7

[7] = substrate: CC[C@H](C)[C@H](NC(=O)c1ccccc1)C(=O)N[C@@H](CCC(=O)OC(C)C)C(=O)NCC(=O)N[C@@H](CCCNC(=N)N)C(=O)Nc1ccc([N+](=O)[O-])cc1; test: as above; settings: other: value is Km multiplied by 10^4, Tris buffer 0.05 mole/l, pH 8.3, I 0.25 (NaCl), 37° C., enzyme Diagen, 37.0 °C
Procedure: as §1, §2, §3, §4, §5, §6, §7

[8] = substrate: CC[C@H](C)[C@H](NC(=O)c1ccccc1)C(=O)N[C@@H](CCC(=O)OC)C(=O)NCC(=O)N[C@@H](CCCNC(=N)N)C(=O)Nc1ccc([N+](=O)[O-])cc1; test: as above; settings: other: value is Km multiplied by 10^4, Tris buffer 0.05 mole/l, pH 8.3, I 0.25 (NaCl), 37° C., enzyme Diagen, 37.0 °C
Procedure: as §1, §2, §3, §4, §5, §6, §7

Molecule | Vmax · 10^8 [1] | Relative activity [2] | other results
CC[C@H](C)[C@H](NC(=O)c1ccccc1)C(=O)N[C@@H](CCC(=O)OC)C(=O)NCC(=O)N[C@@H](CCCNC(=N)N)C(=O)Nc1ccc([N+](=O)[O-])cc1 [Ex. 1, Bz-Ile-Glu(OMe)-Gly-Arg-pNA.HCl] (Bz-IE(OMe)GR-pNA) | 8.1 mol/min · U | 230 | 
CCOC(=O)CC[C@H](NC(=O)[C@@H](NC(=O)c1ccccc1)[C@@H](C)CC)C(=O)NCC(=O)N[C@@H](CCCNC(=N)N)C(=O)Nc1ccc([N+](=O)[O-])cc1 [Ex. 2, Bz-Ile-Glu(OEt)-Gly-Arg-pNA.HCl] (Bz-IE(OEt)GR-pNA) | 7.5 mol/min · U | 200 | 
CC[C@H](C)[C@H](NC(=O)c1ccccc1)C(=O)N[C@@H](CCC(=O)OC(C)C)C(=O)NCC(=O)N[C@@H](CCCNC(=N)N)C(=O)Nc1ccc([N+](=O)[O-])cc1 [Ex. 3, Bz-Ile-Glu(OisoPr)-Gly-Arg-pNA.HCl] (Bz-IE(OiPr)GR-pNA) | 7.1 mol/min · U | 220 | 
CC[C@H](C)[C@H](NC(=O)c1ccccc1)C(=O)N[C@@H](CCC(=O)NC(C)C)C(=O)NCC(=O)N[C@@H](CCCNC(=N)N)C(=O)Nc1ccc([N+](=O)[O-])cc1 [Ex. 6] (Bz-IE(NHiPr)GR-pNA) | 20.0 mol/min · U | 340 | 
CC[C@H](C)[C@H](NC(=O)c1ccccc1)C(=O)N[C@@H](CCC(=O)N1CCCCC1)C(=O)NCC(=O)N[C@@H](CCCNC(=N)N)C(=O)Nc1ccc([N+](=O)[O-])cc1 [Ex. 7] (Bz-IE(Piperidide)GR-pNA) | 8.6 mol/min · U | 300 | 
CC[C@H](C)[C@H](NC(=O)c1ccccc1)C(=O)N[C@@H](CCC(=O)O)C(=O)NCC(=O)N[C@@H](CCCNC(=N)N)C(=O)Nc1ccc([N+](=O)[O-])cc1 [Example S-2222, Benzoyl-Ile-Glu-Gly-Arg-p-nitroanilide, reference compound] (Bz-IEGR-pNA) | 8.6 mol/min · U | 100 | 
factor Xa (Bos taurus) (protein, purchased Diagnostic Reagents (product 'Diagen', 6.4 Denson U)) chain 1: IVGGRDCAEGECPWQALLVNEENEGFCGGTILNEFYVLTAAHCLHQAKRFTVRVGDRNTEQEEGNEMAHEVEMTVKHSRFVKETYDFDIAVLRLKTPIRFRRNVAPACLPEKDWAEATLMTQKTGIVSGFGRTHEKGRLSSTLKMLEVPYVDRSTCKLSSSFTITPNMFCAGYDTQPEDACQGDSGGPHVTRFKDTYFVTGIVSWGEGCARKGKFGVYTKVSNFLKWIDKIMKARAGAAGSRGHSEAPATWTVPPPLPL chain 2: ANSFLEEVKQGNLERECLEEACSLEEAREVFEDAEQTDEFWSKYKDGDQCEGHPCLNQGHCKDGIGDYTCTCAEGFEGKNCEFSTREICSLDNGGCDQFCREERSEVRCSCAHGYVLGDDSKSCVSTERFPCGKFTQGRS |  |  | Km [3]: 560 µM; Km [4]: 170 µM; Km [5]: 830 µM; Km [6]: 290 µM; Km [7]: 210 µM; Km [8]: 260 µM
